Experimental data as given in US20110236409A1, “O[…] FROM VARIABLE ANTIGENS, T CELL POPULATIONS AND USES THEREOF” (Helmholtz Zentrum München - Deutsches Forschungszentrum für …, priority 2008, published 2011).

Experiments:
Format in all cases: cell-based, human
[1] = system: T-cell response of HIV-1 infected individuals; assay: Mapping of Tat- and Nef-specific T-cell responses to single VOPSD peptides in cohorts of HIV-1 infected individuals (Elite Controllers)
[2] = system: CD45RA+ IFN-γ− IL-2− MIP-1β+ CD8 T-cells; assay: Polychromatic intracellular cytokine staining, detection of CD45RA+ IFN-γ− IL-2− MIP-1β+ CD8 T-cells; conditions: subject V4
Method: (§1) After thawing, PBMC were washed trice at room temperature in complete cell culture medium and plated in round bottom 96 wells/plates. All the incubations were carried out in round bottom 96 wells/plates to allow high throughput processing of the probes. 10^6 PBMC/well were incubated with 1.3 μg/ml of antibody to CD28 and with 1.3 μg/ml of antibody to CD49d (Becton Dickinson, Heidelberg, Germany) together with defined peptide pools. For each individual, a sample without peptides was included to calculate the background staining. Following one-hour incubation, 10 μg/ml of Brefeldin A were added to the cell suspension and the incubation carried out for additional 4 hours. Stimulated cells were then resuspended in Stain Buffer (0.2% BSA, 0.09% Na Azide in DPBS; Becton Dickinson) and incubated with the photoreactive fluorescent label ethidium monoazide (EMA; Molecular Probes, Leiden, The Netherlands) used as viability dye. After washing, cells were fixed and permeabilized using the BD Cytofix/Cytoperm™ Kit, (Becton Dickinson). Then, the following fluorochrome-conjugated antibodies were added to the cell suspension: CD3-AmCyan, CD4-PerCP, CD45RA-PECy7, CD154-FITC, IFNγ-A1700, IL2-APC and MIP1β-PE from Becton Dickinson and CD8-PacB from DAKO (Hamburg, Germany). […]
(§2) Following background subtraction, the threshold level was calculated using the 90 percentile of the negative values. […]

[3] = system: Nef specific CD4 and CD8 T-cells (PBMC); assay: Intracellular cytokine staining (IFN-γ) of CD4 and CD8 T cells, Nef peptides; conditions: subject V4; B8 restricted
Method: as §1, with “Dickinson).” for “Dickinson). Then, the following fluorochrome-conjugated antibodies were added to the cell suspension: CD3-AmCyan, CD4-PerCP, CD45RA-PECy7, CD154-FITC, IFNγ-A1700, IL2-APC and MIP1β-PE from Becton Dickinson and CD8-PacB from DAKO (Hamburg, Germany).”
as §2
In this way, the authors could establish whether the higher number of individual responses measured with the new set of overlapping peptides was restricted to the CD8 compartment or interested also CD4 T-cell recognition.

[4] = system: Peripheral blood mononuclear cells (PBMC) of HIV-1 infected individuals; assay: Ex vivo ELISPOT assay for single-cell IFN-γ release, HIV-infected individuals; conditions: patient HSR-028
Method: Peripheral blood mononuclear cells (PBMC) were seeded in duplicate at 2×10^5 cells/well in 96-well plates (MAIPS4510; Millipore, Bedford, Mass.) precoated with anti-IFN-γ capture monoclonal antibody (B-B1; Diaclone, Besancon, France) and stimulated with the different peptide pools at the fixed concentration of 3 μg/ml of each peptide for 18 h at 37° C. in air plus 5% CO2. Biotinylated anti-IFN-γ detection monoclonal antibody (B-G1; Diaclone) was added for 2 h, followed by the addition of streptavidin-alkaline phosphatase conjugate (Amersham Pharmacia Biotech Europe GmbH, Freiburg, Germany) for 1 h. A chromogenic substrate (nitroblue tetrazolium-BCIP [5-bromo-4-chloro-3-indolylphosphate]; Sigma, St. Louis, Mo.) was added for 10 min. The individual spots were counted by using an Automated ELISA-Spot Assay Video Analysis System, Eli-Scan with the software Eli.Analyse V4.2 (A.EL.VIS, Hannover, Germany).
The responses were empirically scored as positive if the test wells contained a mean number of spot-forming cells (SFC) higher than the mean value plus two standard deviations in negative control wells, and if the number of SFC per million PBMC in stimulated wells (subtracted of the values of negative control wells) was ≧50. PBMC in medium alone were used to establish the negative control background, that had to be not higher than 50 SFC per million of cells (10 SFC/well). […]

[5] = Controllers Upon Suspension (CUS)

QVCFITKALGISYGR [peptide 2.6]
individuals recognizing the peptide ([1]; CHI w T): 1/15
individuals recognizing the peptide ([1]; CHI w/o T): 1/13
individuals recognizing the peptide [1, 5]: 1/5
individuals recognizing the peptide ([1]; Elite Controllers (EC)): 7/13

FLKEKGGL
detection of CD45RA+ IFN-γ− IL-2− MIP-1β+ CD8 T-cells [2]: detected
CD8 T-cell response to the epitope [3]: strong CD8 T-cell response

EPVDPRLEPWKHPGSQPKTA [20mer homolog, 20mer homolog of VOPSD Tat peptide 1 from the standard Tat 20mer set, reference compound]
peptide concentration of maximal recognition (single peptide titration) [4]: recognized only at the highest concentration tested

MEPVDPRLEPW [VOPSD Tat peptide 1]
peptide concentration of maximal recognition (single peptide titration) [4]: 0.5 µM

VLEWRFDSRLAFHHVAREL [peptide 5.29]
individuals recognizing the peptide ([1]; Elite Controllers (EC)): 7/13
immunodominant response in groups other than EC ([1]; all other groups of HIV-1 infected individuals): not for any of the all the other groups of HIV-1 infected individuals

KKCCFHCQVCFITKALGI [peptide 2.5]
individuals recognizing the peptide ([1]; CHI w T): 1/15
individuals recognizing the peptide [1, 5]: 1/5
individuals recognizing the peptide ([1]; Elite Controllers (EC)): 4/13
individuals recognizing the peptide ([1]; LTNP): 1/6

LEPWKHPGSQPKTACTNCY [peptide 2.2]
individuals recognizing the peptide ([1]; Elite Controllers (EC)): 5/9
